Key:
Format in all cases: physicochemical
Details in all cases: pH 2 to 3
[1] = Example 2 reactive solvent extraction, 70% Alamine 336/10% MIBK/20% kerosene, 50° C.
Protocol: (§1) A variety of analytical methods can be employed to analyze the reactants and products produced using the present methods include HPLC, GC, ion selective electrodes, MS, NMR, etc. HPLC was used to measure glycolic acid and various related products. Briefly, samples are diluted with water (as needed to be within HPLC detection range) and mixed 1:1 with 0.2 M n-propanol in water (HPLC internal standard). HPLC Analytical Method: (BioRad HPX 87H ion exclusion column (BioRad, Hercules, Calif.), 300 mm×7.8 mm; 0.01 N H2SO4 mobile phase; 1.0 mL/min flow at 50° C.; 10 μL injection volume; RI detector and UV 210 nm, 20 min analysis time). HPLC Equipment: (Waters 2695 ‘Alliance’ Separations Module, 2410 Refractive Index Detector, 2487 Dual λ Absorbance Detector and Empower Pro Software (Waters Corp, Milford, Mass.).
Solvent Extraction Using Approximately 70% C8-C10 Trialkylamine in Combination with 10% Methyl Isobutyl Ketone and 20% Kerosene at 50° C.
(§2) Into a 4-mL glass reactor equipped with magnetic stir bar was placed 1 mL of a mixed solvent containing 70% (volume/volume) Alamine® 336 (Cognis), 10% (volume/volume) methyl isobutyl ketone (MIBK) and 20% (volume/volume) kerosene. The pH of an aqueous solution of ammonium glycolate (5 wt % to 40 wt %) was adjusted to pH 2 to 3 with concentrated sulfuric acid, then 1 mL of the resulting aqueous solution was added to the reactor. The resulting mixture was stirred for 30 minutes at 50° C.

[2] = Example 3 reactive solvent extraction, 70% Alamine 336/10% MIBK/20% kerosene, 75° C.
Protocol: as §1
Solvent Extraction Using Approximately 70% C8-C10 Trialkylamine in Combination with 10% Methyl Isobutyl Ketone and 20% Kerosene at 75° C.
as §2, with “75°” for “50°”

[3] = Example 4 reactive solvent extraction, 90% Alamine 336/10% MIBK, 25° C.
Protocol: as §1
Solvent Extraction Using Approximately 90% C8-C10 Trialkylamine in Combination with 10% Methyl Isobutyl Ketone at 25° C.
as §2, with “90%” for “70%”, “(Cognis) and” for “(Cognis),”, “(MIBK).” for “(MIBK) and 20% (volume/volume) kerosene.”, “25°” for “50°”

[4] = Example 7 reactive solvent extraction, 50% Alamine 336/10% MIBK/40% kerosene, 75° C.
Protocol: as §1
Solvent Extraction Using Approximately 50% C8-C10 Trialkylamine in Combination with 10% Methyl Isobutyl Ketone and 40% Kerosene at 75° C.
as §2, with “50%” for “70%”, “40%” for “20%”, “75°” for “50°”

[5] = Example 11 reactive solvent extraction, 70% Alamine 336/30% 1-octanol, 75° C.
Protocol: as §1
Solvent Extraction Using Approximately 70% C8-C10 Trialkylamine in Combination with 30% 1-Octanol at 75° C.
as §2, with “30%” for “10%”, “1-octanol.” for “methyl isobutyl ketone (MIBK) and 20% (volume/volume) kerosene.”, “75°” for “50°”

[6] = Example 13 reactive solvent extraction, 90% Alamine 336/10% toluene, 75° C.
Protocol: as §1
Solvent Extraction Using Approximately 90% C8-C10 Trialkylamine in Combination with 10% Toluene at 75° C.
as §2, with “90%” for “70%”, “toluene.” for “methyl isobutyl ketone (MIBK) and 20% (volume/volume) kerosene.”, “75°” for “50°”

[7] = initial 3.6 wt % glycolic acid in aqueous phase
[8] = initial 8.5 wt % glycolic acid in aqueous phase
[9] = initial 12.1 wt % glycolic acid in aqueous phase
[10] = initial 16.1 wt % glycolic acid in aqueous phase
[11] = initial 20.6 wt % glycolic acid in aqueous phase
[12] = initial 25.1 wt % glycolic acid in aqueous phase
[13] = initial 29.1 wt % glycolic acid in aqueous phase
[14] = initial 32.8 wt % glycolic acid in aqueous phase

Partition coefficient (wt % org./wt % aq.) [1, 7]: 0.32 | Partition coefficient (wt % org./wt % aq.) [1, 8]: 0.66 | Partition coefficient (wt % org./wt % aq.) [1, 9]: 0.63 | Partition coefficient (wt % org./wt % aq.) [1, 10]: 0.74 | Partition coefficient (wt % org./wt % aq.) [1, 11]: 0.69 | Partition coefficient (wt % org./wt % aq.) [1, 12]: 0.83 | Partition coefficient (wt % org./wt % aq.) [1, 13]: 0.68 | Partition coefficient (wt % org./wt % aq.) [1, 14]: 0.61 | Partition coefficient (wt % org./wt % aq.) [2, 7]: 0.16 | Partition coefficient (wt % org./wt % aq.) [2, 8]: 0.22 | Partition coefficient (wt % org./wt % aq.) [2, 11]: 0.49 | Partition coefficient (wt % org./wt % aq.) [2, 12]: 0.56 | Partition coefficient (wt % org./wt % aq.) [2, 13]: 0.54 | Partition coefficient (wt % org./wt % aq.) [2, 14]: 0.52 | Partition coefficient (wt % org./wt % aq.) [3, 7]: 1.98 | Partition coefficient (wt % org./wt % aq.) [3, 8]: 1.57 | Partition coefficient (wt % org./wt % aq.) [3, 9]: 1.38 | Partition coefficient (wt % org./wt % aq.) [3, 10]: 1.44 | Partition coefficient (wt % org./wt % aq.) [3, 11]: 1.13 | Partition coefficient (wt % org./wt % aq.) [3, 12]: 1.19 | Partition coefficient (wt % org./wt % aq.) [3, 13]: 1.14 | Partition coefficient (wt % org./wt % aq.) [3, 14]: 0.92 | Partition coefficient (wt % org./wt % aq.) [4, 7]: 0.38 | Partition coefficient (wt % org./wt % aq.) [4, 8]: 0.32 | Partition coefficient (wt % org./wt % aq.) [4, 9]: 0.35 | Partition coefficient (wt % org./wt % aq.) [4, 10]: 0.28 | Partition coefficient (wt % org./wt % aq.) [4, 11]: 0.33 | Partition coefficient (wt % org./wt % aq.) [4, 12]: 0.35 | Partition coefficient (wt % org./wt % aq.) [4, 13]: 0.35 | Partition coefficient (wt % org./wt % aq.) [4, 14]: 0.35 | Partition coefficient (wt % org./wt % aq.) [5, 7]: 0.69 | Partition coefficient (wt % org./wt % aq.) [5, 8]: 0.74 | Partition coefficient (wt % org./wt % aq.) [5, 9]: 0.64 | Partition coefficient (wt % org./wt % aq.) [5, 10]: 0.68 | Partition coefficient (wt % org./wt % aq.) [5, 11]: 0.62 | Partition coefficient (wt % org./wt % aq.) [5, 12]: 0.61 | Partition coefficient (wt % org./wt % aq.) [5, 13]: 0.50 | Partition coefficient (wt % org./wt % aq.) [5, 14]: 0.52 | Partition coefficient (wt % org./wt % aq.) [6, 7]: 0.51 | Partition coefficient (wt % org./wt % aq.) [6, 8]: 0.58 | Partition coefficient (wt % org./wt % aq.) [6, 9]: 0.67 | Partition coefficient (wt % org./wt % aq.) [6, 10]: 0.63 | Partition coefficient (wt % org./wt % aq.) [6, 11]: 0.65 | Partition coefficient (wt % org./wt % aq.) [6, 12]: 0.73 | Partition coefficient (wt % org./wt % aq.) [6, 13]: 0.75 | Partition coefficient (wt % org./wt % aq.) [6, 14]: 0.75
Structure (SMILES): O=C(O)CO [glycolic acid]

Reference: patent publication US20060160197A1 (priority 2004, published 2006)
